Columns and labels:
Aurora-B(h) = biological target: T1, Aurora-B(h) (Homo sapiens, UniProt Q96GD4); assay: kinase profile, radiometric assay, Aurora-B; type: biochemical
T1 construct: purchased Eurofins, Dundee, Scotland
Method: (§1) Enzymatic biochemical activities were evaluated in radiometric protein kinase assays (Eurofins, Dundee, Scotland). Kinases are incubated with buffer, substrate and [γ-^33P]-ATP (specific activity approx. 500 cpm/pmol, concentration as required). The reaction is initiated by the addition of the MgATP mix. After incubation for 40 minutes at room temperature, the reaction is stopped by the addition of 3% phosphoric acid solution. 10 μL of the reaction is then spotted onto a P30 filtermat and washed three times for 5 minutes in 75 mM phosphoric acid and once in methanol prior to drying and scintillation counting.
(§2) All compounds are prepared to 50× final assay concentration in 100% DMSO. Positive control wells contain all components of the reaction with 2% DMSO. Blank wells contain all components of the reaction, with a reference inhibitor replacing the compound of interest. Each kinase is assigned a standard assay concentration of ATP within 20 μM of its apparent KM. Compounds were screened at 1 μM in duplicate or tested at 10 concentrations at half log dilution starting from 10 μM in singlicate. Dose response curves were fitted with four parameter logistic curve to obtain IC50 values. The average coefficient of variation (CV) of the conducted assay is 4.4%.

B-Raf(h) = biological target: T2, B-Raf(h) (Homo sapiens, UniProt P15056); assay: kinase profile, radiometric assay, B-Raf; type: biochemical
T2 construct: purchased Eurofins, Dundee, Scotland
T2 sequence (P15056 whole entry): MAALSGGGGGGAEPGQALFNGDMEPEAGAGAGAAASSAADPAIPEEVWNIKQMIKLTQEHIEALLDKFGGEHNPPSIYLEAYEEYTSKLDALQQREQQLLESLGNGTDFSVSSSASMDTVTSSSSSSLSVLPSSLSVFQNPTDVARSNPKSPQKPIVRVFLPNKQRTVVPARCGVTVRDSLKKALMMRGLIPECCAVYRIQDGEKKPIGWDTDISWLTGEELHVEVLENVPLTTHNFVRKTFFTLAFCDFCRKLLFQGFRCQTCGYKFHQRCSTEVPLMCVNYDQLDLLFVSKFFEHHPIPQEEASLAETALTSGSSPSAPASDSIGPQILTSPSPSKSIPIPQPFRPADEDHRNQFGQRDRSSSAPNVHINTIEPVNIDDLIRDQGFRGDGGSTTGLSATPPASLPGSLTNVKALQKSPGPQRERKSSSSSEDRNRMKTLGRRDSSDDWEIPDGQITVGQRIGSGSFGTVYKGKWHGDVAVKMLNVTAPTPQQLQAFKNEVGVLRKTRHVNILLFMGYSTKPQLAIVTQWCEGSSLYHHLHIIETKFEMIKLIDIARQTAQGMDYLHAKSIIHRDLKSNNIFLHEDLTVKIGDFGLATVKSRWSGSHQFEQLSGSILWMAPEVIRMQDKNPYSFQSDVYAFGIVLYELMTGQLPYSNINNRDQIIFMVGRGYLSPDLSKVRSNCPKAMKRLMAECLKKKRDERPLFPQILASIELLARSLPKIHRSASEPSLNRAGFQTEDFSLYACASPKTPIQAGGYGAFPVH
Method: as §1, §2

Fms(h) = biological target: T3, Fms(h) (Homo sapiens, UniProt P07333); assay: kinase profile, radiometric assay, Fms; type: biochemical
T3 construct: purchased Eurofins, Dundee, Scotland
T3 sequence (P07333 20-972): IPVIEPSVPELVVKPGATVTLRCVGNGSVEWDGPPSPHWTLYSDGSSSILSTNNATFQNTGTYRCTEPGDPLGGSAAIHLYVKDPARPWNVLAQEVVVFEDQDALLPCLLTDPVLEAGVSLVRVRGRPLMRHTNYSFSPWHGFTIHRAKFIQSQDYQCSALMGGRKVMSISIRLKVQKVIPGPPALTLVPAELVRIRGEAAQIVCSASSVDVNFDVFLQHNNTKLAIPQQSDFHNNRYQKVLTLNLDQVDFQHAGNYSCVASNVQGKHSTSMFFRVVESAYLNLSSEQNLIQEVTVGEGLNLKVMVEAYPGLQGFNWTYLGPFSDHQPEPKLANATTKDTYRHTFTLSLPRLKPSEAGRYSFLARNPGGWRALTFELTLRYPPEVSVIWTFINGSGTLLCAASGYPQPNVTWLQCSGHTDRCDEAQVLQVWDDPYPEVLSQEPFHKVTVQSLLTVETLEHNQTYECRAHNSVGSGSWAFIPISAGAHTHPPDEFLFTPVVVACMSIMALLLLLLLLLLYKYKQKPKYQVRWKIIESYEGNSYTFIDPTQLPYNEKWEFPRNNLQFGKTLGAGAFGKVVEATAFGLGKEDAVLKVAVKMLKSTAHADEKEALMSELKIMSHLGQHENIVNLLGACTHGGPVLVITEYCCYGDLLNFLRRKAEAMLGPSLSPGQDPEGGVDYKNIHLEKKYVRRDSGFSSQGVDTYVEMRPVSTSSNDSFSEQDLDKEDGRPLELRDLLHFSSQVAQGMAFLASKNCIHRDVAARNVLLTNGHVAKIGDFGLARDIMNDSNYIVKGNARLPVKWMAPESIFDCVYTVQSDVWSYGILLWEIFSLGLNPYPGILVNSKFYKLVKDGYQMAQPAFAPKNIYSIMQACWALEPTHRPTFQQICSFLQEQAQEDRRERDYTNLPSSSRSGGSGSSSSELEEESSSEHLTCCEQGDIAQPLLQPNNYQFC
Method: as §1, §2

JAK2(h) = biological target: T4, JAK2(h) (Homo sapiens, UniProt O60674); assay: kinase profile, radiometric assay, JAK2; type: biochemical
T4 construct: purchased Eurofins, Dundee, Scotland
T4 sequence (O60674 whole entry): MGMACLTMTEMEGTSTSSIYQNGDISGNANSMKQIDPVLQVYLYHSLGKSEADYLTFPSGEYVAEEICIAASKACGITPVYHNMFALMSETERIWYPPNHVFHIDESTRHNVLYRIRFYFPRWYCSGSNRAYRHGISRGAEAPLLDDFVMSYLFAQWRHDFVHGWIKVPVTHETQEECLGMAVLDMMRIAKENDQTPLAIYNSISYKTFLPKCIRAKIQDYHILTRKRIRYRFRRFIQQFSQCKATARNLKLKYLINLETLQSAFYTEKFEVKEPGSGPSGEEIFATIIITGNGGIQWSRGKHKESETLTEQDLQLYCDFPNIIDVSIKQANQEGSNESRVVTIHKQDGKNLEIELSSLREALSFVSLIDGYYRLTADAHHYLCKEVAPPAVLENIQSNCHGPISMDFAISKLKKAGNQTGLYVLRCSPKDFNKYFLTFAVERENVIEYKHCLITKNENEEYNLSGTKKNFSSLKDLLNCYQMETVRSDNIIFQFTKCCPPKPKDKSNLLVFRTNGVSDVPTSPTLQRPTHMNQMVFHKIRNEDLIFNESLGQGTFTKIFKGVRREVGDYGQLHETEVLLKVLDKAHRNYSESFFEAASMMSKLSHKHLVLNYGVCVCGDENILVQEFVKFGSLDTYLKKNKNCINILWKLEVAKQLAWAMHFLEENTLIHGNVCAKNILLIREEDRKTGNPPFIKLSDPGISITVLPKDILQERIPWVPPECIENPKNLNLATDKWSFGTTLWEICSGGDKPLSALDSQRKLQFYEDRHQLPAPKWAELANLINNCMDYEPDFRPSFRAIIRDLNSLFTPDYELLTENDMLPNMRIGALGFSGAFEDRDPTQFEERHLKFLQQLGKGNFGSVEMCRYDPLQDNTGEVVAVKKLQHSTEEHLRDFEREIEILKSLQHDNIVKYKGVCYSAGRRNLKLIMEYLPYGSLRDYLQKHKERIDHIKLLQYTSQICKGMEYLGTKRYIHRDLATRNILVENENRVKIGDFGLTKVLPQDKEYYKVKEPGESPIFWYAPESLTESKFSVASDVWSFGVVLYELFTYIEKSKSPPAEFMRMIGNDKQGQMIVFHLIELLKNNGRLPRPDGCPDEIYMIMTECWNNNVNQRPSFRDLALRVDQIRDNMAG
Method: as §1, §2

MEK1(h) = biological target: T5, MEK1(h) (Homo sapiens, UniProt Q02750); assay: kinase profile, radiometric assay, MEK1; type: biochemical
T5 construct: purchased Eurofins, Dundee, Scotland
T5 sequence (Q02750 whole entry): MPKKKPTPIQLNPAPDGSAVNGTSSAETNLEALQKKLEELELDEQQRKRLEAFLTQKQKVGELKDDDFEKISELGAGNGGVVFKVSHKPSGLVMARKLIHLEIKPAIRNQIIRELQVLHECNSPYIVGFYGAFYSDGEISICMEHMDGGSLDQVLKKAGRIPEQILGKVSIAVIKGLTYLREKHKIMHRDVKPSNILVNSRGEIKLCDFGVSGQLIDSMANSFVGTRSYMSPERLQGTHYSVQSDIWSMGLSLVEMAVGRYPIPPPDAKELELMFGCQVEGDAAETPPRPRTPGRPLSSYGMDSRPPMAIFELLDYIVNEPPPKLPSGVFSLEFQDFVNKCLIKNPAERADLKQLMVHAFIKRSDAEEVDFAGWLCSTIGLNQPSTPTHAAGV
Method: as §1, §2

MEKK2(h) = biological target: T6, MEKK2(h) (Homo sapiens, UniProt Q9Y2U5); assay: kinase profile, radiometric assay, MEKK2; type: biochemical
T6 construct: purchased Eurofins, Dundee, Scotland
T6 sequence (Q9Y2U5 1-619): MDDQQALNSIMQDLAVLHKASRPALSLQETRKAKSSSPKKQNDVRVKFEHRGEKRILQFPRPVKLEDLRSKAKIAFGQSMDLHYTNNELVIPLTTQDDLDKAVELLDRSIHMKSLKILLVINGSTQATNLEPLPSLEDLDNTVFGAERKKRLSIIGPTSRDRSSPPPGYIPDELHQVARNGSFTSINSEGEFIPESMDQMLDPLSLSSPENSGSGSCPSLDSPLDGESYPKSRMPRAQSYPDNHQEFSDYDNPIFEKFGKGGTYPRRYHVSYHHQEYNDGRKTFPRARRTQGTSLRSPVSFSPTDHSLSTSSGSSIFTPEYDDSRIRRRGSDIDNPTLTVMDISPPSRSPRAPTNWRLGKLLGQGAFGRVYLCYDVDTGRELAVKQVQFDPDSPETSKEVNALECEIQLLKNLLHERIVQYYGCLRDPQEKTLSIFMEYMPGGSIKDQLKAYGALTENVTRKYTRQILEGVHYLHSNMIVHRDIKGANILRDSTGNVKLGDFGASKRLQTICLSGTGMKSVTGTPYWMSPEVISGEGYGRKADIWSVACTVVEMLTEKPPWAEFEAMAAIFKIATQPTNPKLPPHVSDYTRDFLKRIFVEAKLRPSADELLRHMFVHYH
Method: as §1, §2

[1] = system: SK-MEL-2/Luc-MDM2 cells (MDM2-Luc exon-skipping reporter); assay: cell-based MDM2-Luc exon-skipping reporter assay; conditions: for luciferase response (Luc fold) in the MDM2-Luc reporter assay: compared with less potent CLK inhibitors of the series; for MDM2/Luc: luciferase activation vs DMSO control, average of three experiments
22 oncogenic kinases = assay: kinase profiling against 22 oncogenic kinases; type: biochemical, human; conditions: 1 μM in duplicate
Method: as §1, §2

CLK3(h) = biological target: T7, CLK3(h) (Homo sapiens, UniProt P49761); assay: radiometric protein kinase assay, CLK3; type: biochemical; conditions: enzyme inhibition, radiometric, ATP 90 μM; read-out: IC50 (nM) CLK3
T7 construct: purchased Eurofins, Dundee, Scotland
T7 sequence (P49761 whole entry): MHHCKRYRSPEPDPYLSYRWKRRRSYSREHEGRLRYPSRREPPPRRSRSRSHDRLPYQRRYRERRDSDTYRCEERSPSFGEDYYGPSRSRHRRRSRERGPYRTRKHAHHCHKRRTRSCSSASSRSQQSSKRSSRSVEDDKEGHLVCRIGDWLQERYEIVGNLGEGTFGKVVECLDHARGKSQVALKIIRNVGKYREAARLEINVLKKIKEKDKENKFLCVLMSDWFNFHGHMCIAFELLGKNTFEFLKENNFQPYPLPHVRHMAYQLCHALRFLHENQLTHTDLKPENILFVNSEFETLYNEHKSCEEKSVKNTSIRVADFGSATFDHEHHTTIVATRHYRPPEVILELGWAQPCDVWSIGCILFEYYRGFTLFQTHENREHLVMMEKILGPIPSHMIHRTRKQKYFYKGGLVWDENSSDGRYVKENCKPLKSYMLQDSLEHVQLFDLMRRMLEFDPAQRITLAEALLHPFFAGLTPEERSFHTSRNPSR
Method: as §1, §2

CDK1/cyclinB(h) = biological target: T8, CDK1/cyclinB(h) (Homo sapiens, UniProt P06493); assay: radiometric protein kinase assay, CDK1; type: biochemical; conditions: enzyme inhibition, ATP 45 μM
T8 construct: purchased Eurofins, Dundee, Scotland
Method: as §1, §2

CDK4/cyclinD3(h) = biological target: T9, CDK4/cyclinD3(h) (Homo sapiens, UniProt P11802); assay: radiometric protein kinase assay, CDK4; type: biochemical; conditions: enzyme inhibition, ATP 20 μM
T9 construct: purchased Eurofins, Dundee, Scotland
T9 sequence (P11802 whole entry): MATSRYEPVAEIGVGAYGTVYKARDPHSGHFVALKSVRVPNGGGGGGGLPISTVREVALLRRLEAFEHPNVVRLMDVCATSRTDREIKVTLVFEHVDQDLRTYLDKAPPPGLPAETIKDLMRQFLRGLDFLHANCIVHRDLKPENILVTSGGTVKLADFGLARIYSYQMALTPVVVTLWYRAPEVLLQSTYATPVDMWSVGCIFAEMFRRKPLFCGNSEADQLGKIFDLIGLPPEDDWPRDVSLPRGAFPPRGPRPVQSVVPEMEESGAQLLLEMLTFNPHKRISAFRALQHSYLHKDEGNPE
T9 sequence (P30281 whole entry partner): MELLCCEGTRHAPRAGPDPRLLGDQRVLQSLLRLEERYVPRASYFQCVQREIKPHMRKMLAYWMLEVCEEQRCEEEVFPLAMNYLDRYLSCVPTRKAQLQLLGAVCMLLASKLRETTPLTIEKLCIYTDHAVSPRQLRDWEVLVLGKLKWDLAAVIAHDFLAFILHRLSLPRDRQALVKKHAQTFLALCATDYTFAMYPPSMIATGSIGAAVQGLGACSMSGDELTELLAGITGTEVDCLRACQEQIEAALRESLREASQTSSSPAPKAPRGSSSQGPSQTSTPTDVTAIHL
Method: as §1, §2

CDK6/cyclinD3(h) = biological target: T10, CDK6/cyclinD3(h) (Homo sapiens, UniProt Q00534); assay: radiometric protein kinase assay, CDK6; type: biochemical; conditions: enzyme inhibition, ATP 20 μM
T10 construct: purchased Eurofins, Dundee, Scotland
Method: as §1, §2

[2] = system: MDM2 alternate splicing in Rh-18 cells; assay: Rh-18 MDM2 RT-PCR gel-based assay (orthogonal secondary assay); type: cell-based; conditions: 10 μM, 8 h
Method: These hits were then subjected to a confirmatory assay in the Rh-18 MDM2 RT-PCR gel-based assay at a concentration of 10 μM.
Referring to FIG. 6, cells were exposed to 0.5% DMSO, 0.2 μM sudemycin D6 or […] CGP-74514A for 8 h. Total RNA was extracted by RNeasy Mini Kit (Qiagen). High capacity RNA-to-cDNA kit (Life technologies) was used to convert the RNA to cDNA.
Referring to FIG. 7, cells were exposed to 0.5% DMSO (lane 1), 1 μM sudemycin D6 (lane 2), 10 μM Compound 14 (lane 3), and 10 μM Compound 15 (lane 4) for 8 h. The total RNA was extracted by RNeasy Mini Kit (Qiagen). High capacity RNA-to-cDNA kit (Life technologies) was used to convert the RNA to cDNA. […] Ubiquitin transcripts (165 bp) in the same cells were used as a control (Fan et al. (2011) ACS Chem. Biol. 6: 582-9).

T1 sequence (Q96GD4 whole entry): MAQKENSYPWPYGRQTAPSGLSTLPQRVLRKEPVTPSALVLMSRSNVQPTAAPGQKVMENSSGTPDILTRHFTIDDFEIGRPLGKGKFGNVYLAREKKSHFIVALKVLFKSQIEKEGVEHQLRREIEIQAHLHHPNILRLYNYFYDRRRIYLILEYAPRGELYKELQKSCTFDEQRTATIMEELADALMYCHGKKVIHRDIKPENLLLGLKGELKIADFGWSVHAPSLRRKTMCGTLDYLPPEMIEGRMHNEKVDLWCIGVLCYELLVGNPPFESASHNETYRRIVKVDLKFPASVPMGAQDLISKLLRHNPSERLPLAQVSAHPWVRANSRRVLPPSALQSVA

Structure (SMILES)	inhibition at 1 µM (Aurora-B(h))	inhibition at 1 µM (B-Raf(h))	inhibition at 1 µM (Fms(h))	inhibition at 1 µM (JAK2(h))	inhibition at 1 µM (MEK1(h))	inhibition at 1 µM (MEKK2(h))	luciferase response (Luc fold) in the MDM2-Luc reporter assay [1]	MDM2/Luc [1]	inhibition against the entire 22 diverse kinase panel (22 oncogenic kinases)	IC50 (CLK3(h))	IC50 (CDK1/cyclinB(h))	IC50 (CDK4/cyclinD3(h))	IC50 (CDK6/cyclinD3(h))	activity in the Rh-18 MDM2 RT-PCR gel-based confirmatory assay [2]	MDM2-Luc activity ([1]; result in words, no concentration stated)
CC(C)n1cnc2c(Nc3cccc(Cl)c3)nc(N[C@@H]3CCCC[C@@H]3N)nc21 [Compound 9, N^2-((1R,2S)-2-Aminocyclohexyl)-N^6-(3-Chlorophenyl)-9-Isopropyl-9H-Purine-2,6-Diamine]	-16%	21%	-16%	2%	8%	18%	stronger luciferase response	Active	–	–	–	–	–	–	–
CC(C)n1cnc2c(Nc3cccc(Cl)c3)nc(N[C@H]3CCCC[C@@H]3N)nc21 [Compound 8, N^2-((1S,2S)-2-Aminocyclohexyl)-V-(3-Chlorophenyl)-9-Isopropyl-9H-Purine-2,6-Diamine]	-15%	10%	-1%	-6%	10%	47%	–	Active	< 50%	–	–	–	–	–	–
CC(C)n1cnc2c(Nc3cc(N)cc(Cl)c3)nc(NC3CCCCC3N)nc21 (racemic) [Compound 14, Racemic N^6-Cis-(3-Amino-5-Chlorophenyl)-N^2-(2-Aminocyclohexyl)-9-Isopropyl-9H-Purine-2,6-Diamine]	-16%	5%	9%	8%	6%	48%	stronger luciferase response	Active	–	> 1000 nM	973 nM	> 1000 nM	> 1000 nM	confirmation	strong MDM2-Luc activity

From patent US10722515B2, “Dual CLK/CDK1 inhibitors for cancer treatment” (SRI INTERNATIONAL, priority 2016, dated 2020)
